Columns and labels:
[1] = tested on: fertilized eggs; assay: Fertilized egg fragmentation after treatment of sperm, in vitro fertilization; assay type: cell-based, mouse (C57BL/6 J line); conditions: sperm incubated 6 h with 100 nM, 24 h after fertilization; for fragmented embryos: vs untreated control
Description: In the same manner as Example 2, sperm incubated for 6 hours in selenoneine-containing TYH medium (final concentration: 100 nM) were separated off with the medium and washed with TYH medium that had been previously incubated at 37° C. in a 5% CO2 atmosphere, after which the washed sperm were separated off and added to TYH medium containing cumulus cells-egg masses. After 24 hours had passed, the fertilization rate was measured and the numbers of normal 2-cell stage embryos and fragmented embryos were counted. For measurement of the fertilization rate, second polar body release and the presence or absence of cell nuclei in the split bodies of each of the 2-cell stage embryos were visually observed in the bright field of a stereomicroscope, and normal 2-cell stage embryos and fragmented embryos were likewise observed in the bright field of a stereomicroscope.
The inhibiting effect of ergothioneine treatment on fragmentation of fertilized eggs was examined in the same manner as the selenoneine treatment of sperm in Example 3, but using commercially available ergothioneine (final concentration: 100 nM) instead of selenoneine (FIG. 5). No difference in the proportion of 2-cell stage embryos was found between the ergothioneine treatment and selenoneine treatment (FIG. 5A).

[2] = tested on: mouse sperm; assay: Sperm membrane protection (propidium iodide / Hoechst 33342 staining); assay type: cell-based, mouse (C57BL/6 J line)
Description: (§1) A sperm mass harvested from the epididymis of an 8- to 12-week-old sexually matured male mouse (C57BL/6 J line) was transferred to a drop prepared in the TYH medium. It was then returned to the plastic dish in the incubator and allowed to stand for 1 hour. After standing for 1 hour, the selenoneine prepared in Example 1 was added to a drop of sperm-containing fertilization medium to final concentrations of 10 nM, 1 μM and 100 μM (or was not added for the control), and the mixture was cultured in an incubator for 3 hours, 6 hours and 9 hours, after which the sperm were obtained. The sperm were also obtained before culturing (0 h). The nuclei of obtained sperm were stained with 2 μg/mL of propidium iodide (PI: Sigma-Aldrich Japan, KK.) and 16.2 μM of Hoechst AG 33342 (Hoechst3342: Invitrogen Corp.), and observed under a fluorescent microscope (FIG. 9A). The number of sperm whose nuclei were unstained with propidium iodide was divided by the number of sperm whose nuclei were stained with Hoechst AG, to calculate the proportion of sperm which retained membranes (FIG. 9B).
Hoechst AG is cell membrane-permeable and can stain all sperm nuclei, whereas propidium iodide is membrane-impermeable and can only stain the nuclei of dead sperm or sperm that have damaged membranes. Therefore, the number of sperm whose nuclei were not stained with propidium iodide but were stained only by Hoechst AG represents the number of normal sperm which retained their membranes.
as §1, with “(Hoechst3342: distributed by” for “(Hoechst3342:”, “microscope.” for “microscope (FIG. 9A).”, “9C).” for “9B).”

[3] = tested on: eggs; assay: Stress-induced egg fragmentation (hot plate culturing); assay type: cell-based, mouse; conditions: hot plate 37° C.; for egg fragmentation: after 21 and 24 hours of culturing
Description: (§2) Mouse cumulus cells-egg masses harvested by the method of Example 3 were stored in TYH medium and the cumulus cells were removed by 300 μg/mL hyaluronidase treatment to recover the eggs alone. TYH medium was prepared with selenoneine at 10 nM, 100 nM, 1 μM, 10 μM and 100 μM, and incubated on a hot plate set to 37° C. Selenoneine-free THY medium was used as the control. The collected eggs were transferred to the incubated selenoneine-containing TYH medium and cultured under shielding for 12 hours, 15 hours, 18 hours, 21 hours and 24 hours, after which they were observed under a stereomicroscope and the proportion of fragmented eggs was examined (FIG. 6). The numbers of cultured eggs in each selenoneine-containing medium were 10 nM: 107, 100 nM: 161, 1 μM: 155, 10 μM: 118, 100 μM: 85 and control: 83.
Culturing by incubation on a hot plate instead of a CO2 incubator produced stress in the eggs. […] The numbers of cultured eggs in each medium were 10 nM: 63, 100 nM: 66, 1 μM: 63, 10 μM: 71, 100 μM: 54 and control: 83.
as §2, with “with ergothioneine” for “with selenoneine”, “C. Ergothioneine-free” for “C. Selenoneine-free”, “(FIG. 7).” for “(FIG. 6). The numbers of cultured eggs in each selenoneine-containing medium were 10 nM: 107, 100 nM: 161, 1 μM: 155, 10 μM: 118, 100 μM: 85 and control: 83.”
Culturing by incubation on a hot plate instead of a CO2 incubator produced stress in the eggs.

[4] = tested on: eggs; assay: Oxidative stress test (ROS/RNS Detection Kit) in eggs; assay type: cell-based, mouse; conditions: 1 μM each; 15 hours on hot plate; vs vehicle (0.1% DMSO)
Description: Mouse cumulus cells-egg masses harvested by the method of Example 3 were stored in TYH medium and the cumulus cells were removed by 300 μg/mL hyaluronidase treatment to recover the eggs alone. TYH medium containing 1 μM selenoneine (SeN), TYH medium containing 1 μM ergothioneine (Erg) and TYH medium containing 1 μM ergothioneine and 1 μM ebselen (Tokyo Kasei Kogyo Co., Ltd.) (Erg+Eb) were prepared and incubated on a hot plate set to 37° C. As a control, a TYH medium (vehicle) containing the DMSO (0.1%) used to dissolve the ebselen was used. The collected eggs were transferred to incubated selenoneine-containing TYH medium and cultured under shielding for 15 hours. The reagent of a ReOIS-ID ROS/RNS Detection Kit (product of Enzo Co.) was added to the medium containing the cultured eggs, according to the manufacturer's protocol. DAPI (Wako Pure Chemical Industries, Ltd.) had already been separately added to stain the nuclei. The nuclei (DAPI) and the reactive oxygen species (ROS), reactive nitrogen species (RNS) and superoxides in the eggs were observed under a fluorescent microscope (FIG. 8A). The fluorescence intensity was calculated and graphed (FIGS. 8B to D).

[5] = tested on: fertilized eggs; assay: Fertilized egg fragmentation after treatment of eggs, in vitro fertilization; assay type: cell-based, mouse (C57BL/6 J line); conditions: eggs cultured with 100 nM; 24 h after sperm addition; vs control
Description: Female mice (C57BL/6 J line: 8- to 12-week-old) were treated for superovulation by the following procedure, and the eggs were harvested.
1. Animal serotropin (PMSG, ASKA Pharmaceutical Co., Ltd.) and animal gonadotropin (hCG, ASKA Pharmaceutical Co., Ltd.) were dissolved in physiological saline to […]. 2. The mice were intraperitoneally administered PMSG at 0.1 mL(5 units)/mouse, and after 48 hours they were intraperitoneally administered hCG at 0.1 mL (5 units)/mouse. 3. After hCG administration, the cumulus cells and egg masses were taken through the fallopian tubes of the mice at 14 to 16 hours.
The cumulus cells and egg masses harvested from the fallopian tubes of the superovulated mice were transferred to a drop of 100 μL TYH medium that had been previously incubated in 5% CO2 at 37° C., and allowed to stand in the incubator.
The harvested eggs were cultured for 2 hours in TYH medium, and then the 1 μL selenoneine (10 μM) solution prepared in Example 1 was added to the TYH medium drop (or not added for the control), and further culturing was carried out for 2 hours with a final concentration of 100 nM selenoneine in the medium. […] After 24 hours had passed in the presence of selenoneine, the fertilization rate was measured and the numbers of normal 2-cell stage embryos and fragmented embryos were counted. […]

[6] = tested on: mouse sperm; assay: Sperm motility test (CASA); assay type: cell-based, mouse (C57BL/6 J line); conditions: 1 μL of 10 μM added to 100 μL TYH drop; 3 h and 6 h incubation; vs control
Description: A 100 μL drop of TYH medium was prepared in a plastic dish, and liquid paraffin was laid over it until the drop was completely covered. The plastic dish was then allowed to stand for 16 hours in an incubator set to 5% CO2, 37° C. The TYH medium drop on the plastic dish was used for a sperm motility test and fertilization test. A sperm mass harvested from the epididymis of a 8- to 12-week-old sexually matured male mouse (C57BL/6 J line) was transferred to a drop prepared in the TYH medium. It was then returned to the plastic dish in the incubator and allowed to stand for 1 hour. After standing for 1 hour, 1 μL of selenoneine (10 μM) prepared in Example 1 was added to a drop of sperm-containing fertilization medium (or not added for the control), and the mixture was allowed to stand in an incubator. After incubation for 3 hours, the sperm motility was measured using CASA, and the proportion of sperm was measured, dividing it into motile sperm and progressive sperm (FIGS. 2A and B). After incubation for 6 hours, the proportion of sperm was then measured with similar division based on sperm motility (VCL) (FIGS. 2C and D).

[7] = 10 nM to 100 μM, culturing 3, 6 and 9 hours
[8] = 100 μM, after culturing for 9 hours, p<0.05

SMILES: C[N+](C)(C)[C@@H](Cc1cnc([Se-])[nH]1)C(=O)O [selenoneine]
- proportion of 2-cell stage embryos ([1]; washed, vs control): no difference
- fragmented embryos ([1]; washed): No fragmented embryos
- proportion of sperm which retained membranes [2, 7]: membrane-protecting effect
- proportion of sperm which retained membranes [2, 8]: significantly protected
- degree of egg fragmentation ([3]; 100 nM, 1 μM and 10 μM in TYH medium, p<0.05): significantly inhibited
- reactive nitrogen species (RNS) in eggs [4]: significant reduction
- reactive oxygen species (ROS) in eggs [4]: increased significantly
- superoxides in eggs [4]: No change
- fragmented embryos [5]: no fragmented embryos
- proportion of 2-cell stage embryos [5]: no difference
- sperm motility (proportion of motile sperm and progressive sperm) [6]: No effect on sperm motility

SMILES: C[N+](C)(C)[C@@H](Cc1c[nH]c(=S)[nH]1)C(=O)[O-] [ergothioneine]
- fragmented embryos ([1]; washed): reduced compared to the untreated control
- proportion of 2-cell stage embryos, ergothioneine treatment versus selenoneine treatment [1]: No difference
- proportion of sperm which retained membranes [2, 7]: membrane-protecting effect
- proportion of sperm which retained membranes [2, 8]: significantly protected
- egg fragmentation ([3]; 10 nM to 10 μM in TYH medium): inhibition seen
- egg fragmentation ([3]; 1 μM in TYH medium, p<0.05): significantly inhibited
- reactive nitrogen species (RNS) in eggs [4]: no variation
- reactive oxygen species (ROS) in eggs [4]: increased significantly
- superoxides in eggs [4]: No change
